Experimental data as given in patent publication US20260256790A1, “DEBIO-0123 IN COMBINATION WITH TEMOZOLOMIDE AND RADIOTHERAPY FOR USE IN TREATING GLIOMA” (Debiopharm International S.A., priority 2023, published 2026).
“And” between values parts separate entries of the source, which are not always exact repeats. Equal entries are not always repeated. Where two headings read alike, the source gives them in different places. Values belong to the molecule of their own block, whether it stands above or below them.

Experiments:
[1] = Plasma and brain concentrations (PK) in healthy mice after oral dosing; assay type: in vivo, Nu/Nu mice; settings: for Kp at 72 h: brain/plasma
Method: Healthy male Nu/Nu mice were treated orally with either (i) a single dose of 30 mg/kg Compound of formula (I) ([…], 3 mice per time-point), (ii) 30 mg/kg of Compound of formula (I) given once a day for four consecutive days (27 mice in total, 3 mice per time-point), (iii) 30 mg/kg of AZD-1775 (adavosertib, purchased from Combi-Blocks, San Diego, USA) given twice a day for three consecutive days and once on day four (27 mice in total, 3 mice per time-point), (iv) or 80 mg/kg of Zn-c3 (purchased from EOS Med Chem, Jina City, China) given once a day for four consecutive days (27 mice in total, 3 mice per time-point). The doses used for each compound have previously been reported as active dose levels. Compound of formula (I) was formulated as a suspension in 0.5% methylcellulose with 1% Tween 80 and administered at a concentration of 3.0 mg/mL. […] The dosing volume of all formulations was 10 mL/kg. At designated time-points the mice were euthanized by carbon dioxide inhalation, blood samples were collected by cardiac puncture into K2EDTA containing tubes. The tubes were inverted several times, placed on ice and centrifuged within 30 min of collection (4° C. for 5 min at 6000 rpm) to obtain plasma. The plasma samples were snap frozen in dry ice and stored at −80° C. until analysis. The brain was collected, weighed and snap frozen in dry ice until further analysis. To obtain brain homogenates, firstly water was added to each brain (brain weight:water volume=1:4) then the brain was homogenized with a H-speed dispersator (time procedure: homogenizing for 10 s and interval of 10 s per time, total 3-5 times; cleaning procedure for dispersator: Water-Methanol-Ethanol-Water, 10 s each). The brain homogenate samples were transferred to individual tubes and stored at −80° C. prior to analysis. The mouse plasma and brain samples were analysed as follows. For each analytical batch of plasma and brain samples, the standard and quality control (QC) samples were freshly prepared in blank male Nu/Nu mouse plasma (with K2EDTA anticoagulant) and brain homogenate. To an aliquot of each standard, QC, control blank and study samples, internal standard (^13CD6-Compound of formula (I) for Compound of formula (I), terfenadine for AZD-1775 and Zn-c3) in methanol/acetonitrile (1:1, v/v) was added. The samples were mixed for 1 minute and centrifuged at 4000 rpm at 4° C. for 15 minutes. Supernatants were transferred and diluted in MeOH/water (1:1, v/v, with 0.1% FA) prior to LC-MS/MS injection. Chromatographic separation was achieved on an Shimadzu LC-20AD using a Kinetex 2.6μ C18 100A column (50 mm*3.00 mm) for Compound of formula (I) and AZD-1775 samples and a ACE 5 C4 column (50 mm*2.1 mm) for Zn-c3 samples with gradient elution using the following conditions: flow rate: 0.7 mL/min; run time: 3.0 min; mobile phase: A: 5 mM NH4OAc (0.1% FA), B: Acetonitrile (0.1% FA). Detection was accomplished with an AB Sciex 5500 utilizing electrospray MS/MS in positive ion multiple reaction monitoring mode (MRM). The MRM channels were 511.29/98 for Compound of formula (I), 501.47/442.20 for AZD-1775 and 527.36/468.10 for Zn-c3. The MRM channels of internal standard were 518.17/102.10 (^13CD6-Compound of formula (I)) for Compound of formula (I), 472.40/436.40 (terfenadine) for AZD-1775 and Zn-c3. The measured plasma and brain concentrations at each time-point, the nominal sample collection time, and intended dosages were used for pharmacokinetic analysis. The PK parameters of all study compounds were determined by non-compartmental analysis using WinNonlin Version 8.0 (Pharsight).

[2] = Drug concentration in monkey brain and plasma after daily oral administration for 91 days; assay type: in vivo, cynomolgus monkeys; settings: 10 mg/kg oral once a day for 91 days
Method: Compound of formula (I) was orally given to 3 female cynomolgus monkeys by gavage once a day for 91 days. The volume of administration was 5 mL/kg, and the vehicle was an aqueous solution of 0.5% (w/v) methylcellulose (cps 400) and 1% (w/v) Tween 80. The Compound of formula (I) dose was 10 mg/kg; this dose level was assessed in this study to be the […] no adverse effect level (NOAEL) based on general toxicology evaluation. The animals were necropsied 24 hours after the last dose after an overnight period without food. A sample from brain tissue (left forebrain) was collected from each animal, snap frozen in liquid nitrogen. and stored frozen at <−50° C. Blood samples were taken from the femoral vein into tubes containing K2EDTA, fully inverted approximately 10 times, and placed on crushed wet ice until centrifugation at 2300 g for 10 minutes at approximately 4° C. The resultant plasma was separated, transferred into polypropylene tubes, and frozen at <−50° C. Tissue and plasma samples were transported frozen on dry ice to the respective sites of analysis.
The monkey plasma samples were analyzed for their contents in Compound of formula (I) and N^32-desmethyl-Compound of formula (I) as follows. The plasma samples were fortified in human K2-EDTA plasma (1:9 monkey:human volume ratio) prior to extraction. All solution preparations and dilutions were conducted under sodium vapor light and in “low-binding” quality polypropylene tubes and deep-well plates. The analytes and internal standards (^13CD6-Compound of formula (I) and D7-N^32-desmethyl-Compound of formula (I)) were extracted by protein precipitation with 5M aqueous urea (40 μL for 50 μL plasma), and then analyzed by LC-MS/MS. Chromatographic separation was achieved on an Synergi Polar-RP, 80A, 4 μm 75×2.00 mm column (Phenomenex) with gradient elution using a mixture of 0.1% formic acid in water as eluent A and 0.1% formic acid in acetonitrile as eluent B (5% B from 0 to 0.50 min, 42% B at 4.5 min, 95% B from 4.60 min to 5.50 min, 5% B at 5.60 min, 100% B at 5.70 min, 5% B at 6.40 min, 100% B at 6.50 min, 5% B at 7.00 min; 800 μl/min, 70° C.). Detection was accomplished with a AB Sciex 6500+ mass spectrometer utilizing electrospray MS/MS in positive ion multiple reaction monitoring mode (MRM). The lower limits of quantification for Compound of formula (I) and N^32-desmethyl-Compound of formula (I) were 5.00 ng/mL and 2.50 ng/mL, respectively.
The monkey brain tissue samples were analyzed for their contents in Compound of formula (I) and N^32-desmethyl-Compound of formula (I) as follows. Tissue samples were homogenized in human plasma (1 mg tissue for 10 μL plasma) at +4° C. using a Precelly Evolution system. The analytes (Compound of formula (I) and N^32-desmethyl-Compound of formula (I)) were extracted by protein precipitation with methanol/acetonitrile (9:1, v:v) containing the internal standards (^13CD6-Compound of formula (I) and D7-N^32-desmethyl-Compound of formula (I)) and then analyzed by UHPLC-MS/MS. Chromatographic separation was achieved on a HSS T3 1.8 μm, 2.1×100 mme column (Waters) with gradient elution using a mixture of 0.1% formic acid in water as eluent A, and 0.1% formic acid in acetonitrile as eluent B (20% B from 0 to 0.50 min, 90% B from 1.80 min to 2.30 min, 20% B at 2.60 min; 0.6 mL/min, room temperature). Detection was accomplished with Xevo TQ-S mass spectrometer (Waters) utilizing electrospray MS/MS in positive ion multiple reaction monitoring mode (MRM). The lower limits of quantification for Compound of formula (I) and N^32-desmethyl-Compound of formula (I) were 55.00 ng/g tissue and 22.00 ng/g tissue, respectively.

[3] = CSF and matching plasma concentrations in glioma patients (clinical trial Arms A and B); assay type: in vivo, human
Method: In the clinical trial described in Example 9, cerebrospinal fluid (CSF) stabilized with formic acid 0.5% and matching plasma samples collected on K2 EDTA were drawn from 3 patients of Arm A on day 11 of cycle 1 (i.e. 2 patients at 150 mg and 1 patient at 200 mg of Study drug) and 1 patient of Arm B on Week 3 day 1 (i.e. Day 15 after daily doses of Study drug at 90 mg).
Study drug (parent, active moiety) and its active metabolite N^32-desmethyl-Study drug were measured using LC-MS/MS methods. Results were provided in ng per mL of plasma or CSF, and then converted to nmol/L using the molecular weights of the Study drug (511.45 g/mol) and N^32-desmethyl-Study drug (497.42 g/mol).
(§1) Thus, the unbound (or free fraction) of the Study Drug and the N^32-desmethyl-Study drug are calculated.
In CSF, the total protein concentration varies between 0.2% and 0.5% of the total protein concentration of blood (H. Reiber, Clinica Chimica Acta, 2001; Schilde L M et al., PLoS ONE, 2018), therefore the concentration measured in CSF essentially corresponds to the free fraction of the compounds.
For each of the 4 patients, the ratio CSF/plasma of a given compound (Study drug parent or metabolite) was calculated using the CSF concentration of said compound (in nmol/L) and the unbound or free fraction of said compound in plasma (in nmol/L).

plasma proteins = test: Binding to plasma proteins; assay type: in vitro ADME
Method: as §1

[4] = 30 mg/kg, bid for 3 days and once on day 4, oral, day 4
[5] = Arm A, 150 mg, day 11 of cycle 1, listed as N^32-desmethyl-Study drug
[6] = Arm A, 200 mg, day 11 of cycle 1
[7] = Arm B, 90 mg daily, Week 3 day 1 (Day 15)

AUCInf, brain [1, 4]: 99.7 ng·h/g
AUCLast, brain [1, 4]: 94.5 ng·h/g
Cmax, brain [1, 4]: 53.9 ng/g
Kp at 72 h ([1]; male, Nu/Nu, mouse, po, 30 mg/kg, bid for 3 days and once on day 4, oral, day 4, read-out: Brain to plasma ratio based on AUCInf): 0.051
Kp at 72 h ([1]; male, Nu/Nu, mouse, po, 30 mg/kg, bid for 3 days and once on day 4, oral, day 4, read-out: Brain to plasma ratio based on AUCLast): 0.048
Kp at 72 h ([1]; male, Nu/Nu, mouse, po, 30 mg/kg, bid for 3 days and once on day 4, oral, day 4, read-out: Brain to plasma ratio based on Cmax): 0.043
Cmax ([1]; male, Nu/Nu, mouse, plasma, po, 30 mg/kg, bid for 3 days and once on day 4, oral, day 4): 1260 ng/mL
AUC(0-inf) ([1]; male, Nu/Nu, mouse, plasma, po, 30 mg/kg, bid for 3 days and once on day 4, oral, day 4, read-out: AUCInf, plasma): 1960 ng·h/mL
AUC(0-t) ([1]; male, Nu/Nu, mouse, plasma, po, 30 mg/kg, bid for 3 days and once on day 4, oral, day 4, read-out: AUCLast, plasma): 1950 ng·h/mL
Structure (SMILES): C=CCn1c(=O)c2cnc(Nc3ccc(N4CCN(C)CC4)cc3)nc2n1-c1cccc(C(C)(C)O)n1 [AZD-1775, adavosertib, reference compound]

Structure (SMILES): Cc1cc(Nc2ncc3c(n2)N(C)CN(c2c(Cl)cccc2Cl)C3=O)ccc1C1CCNCC1 [N^32-Desmethyl-Compound of formula (I)]
Mean brain:plasma ratio (±SD), at 24 h post last dose (n = 3) [2]: 0.73 ± 0.21
Brain:plasma concentration ratio, at 24 h post last dose ([2]; individual animals): 0.49 and 0.81 and 0.88
Plasma concentration at 24 h post last dose ([2]; individual animals): 531 ng/mL and 233 ng/mL and 365 ng/mL
Brain concentration at 24 h post last dose ([2]; left forebrain, individual animals): 258 ng/g tissue and 188 ng/g tissue and 323 ng/g tissue
CSF/plasma ratio ([3]; 4 patients, Arms A and B): about 5%
CSF concentration [3, 5]: 0.23 nmol/L and 0.26 nmol/L
CSF to “unbound plasma” ratio [3, 5]: 0.06 and 0.05
Raw data concentration in CSF [3, 5]: 0.114 ng/mL and 0.128 ng/mL
Raw data concentration in plasma [3, 5]: 17.7 ng/mL and 15.6 ng/mL
Unbound plasma concentration [3, 5]: 4.59 nM and 4.05 nM
CSF concentration [3, 6]: 0.31 nmol/L
CSF to “unbound plasma” ratio [3, 6]: 0.05
Raw data concentration in CSF [3, 6]: 0.154 ng/mL
Raw data concentration in plasma [3, 6]: 23.2 ng/mL
Unbound plasma concentration [3, 6]: 6.02 nM
CSF concentration [3, 7]: 0.61 nmol/L
CSF to “unbound plasma” ratio [3, 7]: 0.05
Raw data concentration in CSF [3, 7]: 0.302 ng/mL
Raw data concentration in plasma [3, 7]: 42.8 ng/mL
Unbound plasma concentration [3, 7]: 11.10 nM
Active metabolite in plasma as share of Study drug parent ([3]; patient plasma): about 10%
Bound to plasma proteins (plasma proteins): 87.1%

AUCInf, brain ([1]; mouse, in vivo, po, 80 mg/kg): 878 ng·h/g
AUCInf, plasma ([1]; mouse, in vivo, po, 80 mg/kg): 14180 ng·h/mL
AUCLast, brain ([1]; mouse, in vivo, po, 80 mg/kg): 396 ng·h/g
AUCLast, plasma ([1]; mouse, in vivo, po, 80 mg/kg): 14179 ng·h/mL
Brain to plasma ratio based on AUCInf ([1]; mouse, in vivo, po, 80 mg/kg): 0.062
Brain to plasma ratio based on AUCLast ([1]; mouse, in vivo, po, 80 mg/kg): 0.028
Brain to plasma ratio based on Cmax ([1]; mouse, in vivo, po, 80 mg/kg): 0.035
Cmax, brain ([1]; mouse, in vivo, po, 80 mg/kg): 97.2 ng/g
Cmax, plasma ([1]; mouse, in vivo, po, 80 mg/kg): 2773 ng/mL
Structure (SMILES): C=CCn1c(=O)c2cnc(Nc3ccc(N4CCN(C)CC4)cc3)nc2n1-c1ccc2c(n1)[C@@](O)(CC)CC2 [Zn-c3, reference compound]
